Results: US20110039763A1, “TARGETED ANTIMICROBIAL MOIETIES” (C3 JIAN, INC., priority 2009, published 2011)

Experiments:
T. rubrum = assay: MIC test / antimicrobial activity, T. rubrum; assay type: cell-based, Trichophyton rubrum
Procedure, shortened: (§1)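 Broth microdilution with ~1×10^5 cfu/mL organisms in TH broth (S. mutans) or Mueller-Hinton broth (other organisms). Peptides added as 2-fold serial dilutions, then incubated 18-24 h at 37° C. Experiments run 10 times.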

C. albicans = assay: MIC test / antimicrobial activity, C. albicans; assay type: cell-based, Candida albicans
Procedure: (§2) The active AMPs, STAMPs and the like can be identified and/or validated using an in vitro screening assay.
(§3) It will be appreciated that other assays as are well known in the art or that will become apparent to those having skill in the art upon review of this disclosure may also be used to identify active AMPs. Such assays include, for example, the assay described in Lehrer et al. (1988) J. Immunol.
(§4) Peptides were evaluated for basic antimicrobial activity by broth microdilution, as described previously (Eckert et al. (2006) Antimicrob Agents Chemother., 50: 3651-3657; Eckert et al. (2006) Antimicrob Agents Chemother., 50: 1480-1488). Briefly, ˜1×10^5 cfu/mL bacteria were diluted in TH (S. mutans), or Mueller-Hinton (MH) broth (all other organisms) and distributed to 96-well plates. Serially-diluted (2-fold) peptides were then added and the plates incubated at 37° C. for 18-24 h. […] All experiments were conducted 10 times.

microorganisms [1] = assay: Morphology, biofilm and growth disrupting peptides (Table 5); assay type: cell-based; set-up: key: A: Peptide aggregates; B: Less hyphal formation; Clumps; Diffuse clumps and small polyps; F: Diffuse growth; H: Thin; I: Growth inhibition; Microcolony formation; Rippled; Small polyps; Thick; W: Halo formation on top, microlonies on bottom
Source text: In certain embodiments peptides that induce alterations in phenotype or other biological activities can also be used as antimicrobial effector moieties.

S. epidermidis = assay: MIC test (broth microdilution) / antimicrobial activity, S. epidermidis; assay type: cell-based, Staphylococcus epidermidis; settings: S. epidermidis
Procedure, shortened: as §1

B. subtilis = assay: MIC test / antimicrobial activity, B. subtilis; assay type: cell-based, Bacillus subtilis; settings: B. subtilis
Procedure, shortened: as §1

microorganisms [2] = assay: Peptide activities: targeting/binding, antimicrobial, growth or phenotype altering (Tables 7, 8); assay type: cell-based; settings: peptides having multiple activities
A. niger = assay: MIC test / antimicrobial activity, A. niger; assay type: cell-based, Aspergillus niger
Procedure, shortened: as §1

E. faecalis = assay: MIC test / antimicrobial activity, E. faecalis; assay type: cell-based, Enterococcus faecalis
Procedure: as §2, §3, §4

MRSA = assay: MIC test / antimicrobial activity, MRSA; assay type: cell-based, Methicillin-resistant Staphylococcus aureus
Procedure: as §2, §3, §4

MRFGSLALVAYDSAIKHSWPRPSSVRRLRM [PF-672]
Organism MIC (μM) (T. rubrum): T. rubrum, 0.78 μM
Organism MIC (μM) (C. albicans): C. albicans, 1.56 μM
Organism, effect (microorganisms [1]; B. subtilis): B. subtilis (I)
Organism, effect (microorganisms [1]; C. albicans): C. albicans (I)
Organism, effect (microorganisms [1]; C. jeikeium): C. jeikeium (R)
Organism, effect (microorganisms [1]; E. faecalis): E. faecalis (I)
Organism, effect (microorganisms [1]; MRSA): MRSA (I)
Organism, effect (microorganisms [1]; S. epidermidis): S. epidermidis (I)
Organism, effect (microorganisms [1]; S. pneumoniae): S. pneumoniae (I)
Organism MIC (μM) (S. epidermidis): S. epidermidis, 0.39 μM
Organism MIC (μM) (B. subtilis): B. subtilis, 0.78 μM
Activities (microorganisms [2]): G B M
Organism MIC (μM) (A. niger): A. niger, 3 μM
Organism MIC (μM) (E. faecalis): E. faecalis, 3.13 μM
Organism MIC (μM) (MRSA): MRSA, 1.56 μM
